Values quoted from earlier work as cited in US9333228B2, “Nutritional supplement for recovery, repair, and maintenance” (Top Doctors Labs, LLC, priority 2010, dated 2016).

Test system: osteoporotic fractures
Settings: human clinical studies; vitamin K2 as MK-4

CC(C)=CCC/C(C)=C/CC/C(C)=C/CC/C(C)=C/CC1=C(C)C(=O)c2ccccc2C1=O [vitamin K2, menatetranone]
lower risk of osteoporotic fractures: up to 81%
